For series [1] the following is noted: cited from earlier work.
In series [2] the target is T1, preformed human β-2 microglobulin fibrils (Homo sapiens, UniProt P61769). The series can be described thus: Dose-response testing by thioflavin T fluorescence. The format is biochemical. As for the experimental part:
Twelve compounds were selected for testing their dose-response effects. Dose-response curves were derived as follows. Preformed β-2 microglobulin fibrils were mixed with ThT in the ratios described above and divided into portions of 40 μL per well across 8 wells. The final concentrations were the same as used in the high-throughput screen: 4.1 μM ThT, 41.2 mM glycine, 0.018 mg/mL B2M, 35 mM NaCl, 4.4 mM phosphate. The first and last wells of each row were controls (B2M fibrils+ThT+solvent (water or DMSO)). To wells 2-7 of a given row, test compound was added to the β2M fibril/ThT mix such that the following final concentrations in the well were reached: 10 mM, 1 mM, 100 μM, 10 μM, 1 μM, and 100 nM. Each row was set up in duplicate. The wells were incubated for 99 hours and data collected at 2.5 hour intervals. Compound 22 was tested using both water and DMSO as solvent.
It is visually apparent that concentrations down to 10 μM of both compound 22 and L18 affect the B2M/Tht fluorescence.

The conditions of series [3]: orally at doses at least twice this high (Ullmann, Haller et al. 2004); cited from earlier work.
Series [4] deals with T1, preformed human β-2 microglobulin fibrils. The series can be described thus: Electron microscopy as a secondary screen of fibril disruption. The series is classed as biochemical. As for the experimental part: Electron microscopy was used to confirm the effects of, among others, compounds 22 and L18 on the fibrils. Compounds 22 and L18 were mixed with drug and solvent or solvent alone and were separately incubated with preformed human β-2 microglobulin fibrils for two weeks. Compound 22 was tested at three concentrations (1 mM, 100 μM, and 10 μM). Aliquots were taken immediately after mixing, at day 2, at day 5, day 7, and day 14. Samples were fixed to grids (made hydrophilic by glow-discharge) upon taking the aliquots, washed with distilled water, and stained with 1% uranyl acetate. Grids were examined in a Hitachi H-7000 transmission electron microscope operating at 75 kV. Images were collected on Kodak electron microscope film 4489.

Series [5] has the same target. Put plainly: Thioflavin T fluorescence high-throughput screen (slope assay score) for disruption of preformed fibrils. The format is biochemical. As for the experimental part:
As used herein, “slope assay score” means the slope of the relative fluorescence of thioflavin T versus time curve for a given compound in a thioflavin T fluorescence assay. A negative slope signifies a decrease in thioflavin T fluorescence over time.
The human β-2 microglobulin fibrils were prepared in vitro at 0.1 mg/mL protein in 25 mM phosphate, pH 2, 0.2 M NaCl without agitation for 1 week at 37° C., in the same manner as Ivanova et al. See Ivanova et al. (Proc Natl Acad Sci U.S.A. 2004 Jul. 20; 101(29):10584-9).
In our experiments, disruption of the fibrillar structure of preformed β-2 microglobulin fibrils was monitored by fluorescence. The dye used, thioflavin T, serves as a probe for the presence or absence of amyloid fibrils. Thioflavin T binds specifically to human β-2 microglobulin fibrils, causing a red shift in the fluorescence excitation spectra of the dye to produce a peak in the fluorescence emission spectrum at 482 nm when the excitation wavelength is set at 444 nm. […] Because aliquotting of fibrils has an inherent variability, we aimed for a high signal/noise ratio of ˜10.
In the fluorescence assay used here, preformed human β-2 microglobulin fibrils were mixed with a solution of 5 μM ThT in 50 mM glycine, pH 8.6 in a 3:14 ratio (final concentrations: 4.1 μM ThT, 41.2 mM glycine, 0.018 mg/mL β-2 microglobulin, 35 mM NaCl and 4.4 mM phosphate). Fluorescence was measured immediately after mixing (excitation wavelength set at 444 nm, emission wavelengths at 482, 490, and 502 nm) with a Molecular Devices FlexStation II.
In our experiments, we screened 5200 compounds to determine whether a compound could disrupt preformed human β-2 microglobulin fibrils. Preformed β-2 microglobulin fibrils and ThT were mixed in the ratios described above in Example 2 and divided among seventeen 384-well glass-bottom plates (Costar #6569) using 40 μL/well. Each of the sixteen commercial plates contained four columns of control wells: columns 1, 2, and 23 contained preformed fibrils+dimethylsulfoxide (herein, DMSO), but no compound; column 24 contained nonfibrillar β2M+DMSO (no compound). The final concentrations of compound and DMSO in the other wells were 10 μM and 1%, respectively. Compounds were obtained from the following chemical libraries: the MicroSource Discovery Systems, Inc. Spectrum Collection library (J Virology 77: 10288 (2003); Ann Rev Med 56: 321 (2005)), the first four plates from the Prestwick Chemical Inc. library, two BIOMOL plates (phosphatase/kinase inhibitor library and bioactive lipid library), and the first five plates from the ChemBridge Corporation DIVERSet.
Plate 17 was prepared in-house and set up slightly differently than the commercial plates. Column 24 contains nonfibrillar B2M as in the other plates. However, only the first two rows contain added compounds, and the remaining rows contain control samples (fibrils mixed with thioflavin T, no compound). The chemicals used to prepare this supplemental plate were purchased from SIGMA. For each compound, a 1 mM solution in OmniSolv DMSO was prepared and filtered with Millex-FG 0.2 micron filters. The supplementary plate contained compounds at 1 or 10 mM in 100% DMSO, such that the final screening concentration is 10 or 100 μM compound in I% DMSO.
All plates were read manually on a Molecular Devices FlexStation II using the bottom-read function. For each of the wells, an initial fluorescence intensity measurement was taken as a baseline.

Where two headings read alike, the source gives them in different places.

T1 sequence (P61769 21-119): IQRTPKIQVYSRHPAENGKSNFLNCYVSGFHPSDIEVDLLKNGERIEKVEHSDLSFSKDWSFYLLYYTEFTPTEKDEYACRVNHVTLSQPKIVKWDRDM

Turning to `O=C(O[C@@H]1Cc2c(O)cc(O)cc2O[C@@H]1c1cc(O)c(O)c(O)c1)c1cc(O)c(O)c(O)c1` [Compound 22, Epigallocatechin gallate], the average plasma level in series [1] (patients, single oral dose (Chow et al. 2001)) was 1 µM. In series [1] (single oral dose (Nakagawa, Okuda and Miyazawa 1997)), the plasma levels reached is 4.4 µM. The “human plasma levels reached” value in series [1] (single oral dose (Unno et al. 1996)) is 2 to 4 µM. For the same molecule, in series [2], the “concentration at which the compound affects thioflavin T/β-2M fibril fluorescence in a dose-dependent manner” value was determined as 10 µM. In addition, the “dose-dependent effect on thioflavin T/β-2 microglobulin fibril fluorescence (words)” value in series [2] is given as “dose-dependent”; in series [2] (listed as EGCG), “dose-related effects”. For the same molecule, the “Dose-Response (conc. at which slope is better than control)” value in series [2] (ThT/β2M fibril fluorescence, tested 100 nM to 10 mM) worked out at 10 µM. The “concentration at which preformed human B2M fibrils are disrupted” value in series [2] (in the range of) was around 10 µM. For the same molecule, the oral tolerability entry in series [3] is “well-tolerated”. Further, the “state of fibrils by electron microscopy at 10 μM compound” value in series [4] (10 μM, two-week incubation) was “significantly disrupted”. In addition, in series [4] (1 mM, two-week incubation), the “state of fibrils by electron microscopy at 1 mM compound” value is on record as “almost all of the fibrils”. The “effect on fibrils by electron microscopy” value in series [4] (at the concentrations tested) was “had an effect on fibrils”. For the same molecule, the “effective in the fluorescence assay at disrupting β-2 microglobulin fibers” value in series [5] is listed as “disrupts”. Further, the “Slope Assay Score” value in series [5] (slope of relative ThT fluorescence versus time, more negative = stronger disruption) is listed as “−.087”. Besides, in “Solubility in water”, the solubility in water entry is on record as “soluble”.

Source of the values: patent US9463195B2, “Dissolution of amyloid fibrils by flavonoids and other compounds” (The Regents of the University of California, priority 2006, dated 2016).
